Results on 15 compounds are retold here after patent US11446354B2, “Method of treatment” (Hexima Limited, priority 2014, dated 2022).

The subject of one data set is Escherichia coli. Description: Inhibition of the growth of Escherichia coli. The class given is cell-based. Particulars: 0.1625-10 μM, 18 hours, 37° C. The method, then:
A single E. coli colony was used to inoculate 5 ml of Luria-Bertani media and grown overnight at 37° C. The following day, the optical density of the culture was measured and the E. coli diluted to an optical density at 600 nm (OD600) of 0.01 in Mueller-Hinton Broth. Diluted E. coli were added to 96-well plates with defensins at concentrations of 10 μM, 5 μM, 2.5 μM, 1.25 μM, 0.625 μM, 0.3125 μM or 0.1625 μM. Plates were read at OD595 to obtain time zero data points. Plates were incubated at 37° C. for 18 hours before reading again at OD595 to assess the amount of E. coli growth.

The format of data set [1] is in vitro ADME, Human. The settings on record: for Cumulative amount through nail as percent (of applied dose): human. The method, then: Penetration of NaD1 through human nails was measured according to the method of Hui et al. (2002) J Pharm Sci 91(1):189-195. Human toenails were obtained from ScienceCare (USA) and washed with phosphate buffered saline (details, PBS) before being placed on a kimwipe that had been soaked in PBS for 3 h to rehydrate the nail. The nail was then placed in a plastic nail adapter with a dosing area of 0.5×0.5 cm (Permagear, USA) and a cotton bud wetted with 75 microlitres of PBS was placed in the receptor chamber in contact with the underside of the nail.
The cotton bud in contact with the underside of the nail was removed after 24 h and every 24 h following. Protein that had passed through the nail was recovered from the cotton bud by washing twice with 500 μL of 0.1% v/v trifluoroacetic acid. Recovered protein was quantified using RP-HPLC.

The test system of data set [2] is Human monocytic lymphoma (U937) cells. It counts as cell-based. As to the method: Human monocytic lymphoma (U937) cells are cultured in RPMI-1640 medium. All culture media are supplemented with 5-10% v/v fetal calf serum, 100 U/ml of penicillin, and 100 μg/ml of streptomycin. Cell lines are cultured at 37° C. in a humidified atmosphere containing 5% v/v CO2. Adherent cell lines are detached from the flask by adding a mixture containing 0.25% v/v trypsin and […]. A flow cytometry-based propidium iodide (PI) uptake assay is performed to analyze the ability of plant defensins to permeabilize U937 cells (essentially as described in Poon et al, 2014). Briefly, cells are suspended to 1×10^6 cells/ml in 0.1% v/v BSA/RPMI-1640 and incubated with plant defensins (10 μM) at 37° C. for 30 min. Samples are added to PBS containing a final concentration of 1 μg/ml PI and placed on ice. Samples are then analyzed immediately using the BD FACSCanto II Flow Cytometer and BD FACSDiva software v6.1.1. The resultant flow cytometry data is analyzed using FlowJo software v8.8.6. Cells are gated appropriately based on forward scatter and side scatter and cell permeabilization is defined by PI-positive staining.

Data set [3] has as its system Trichophyton rubrum, T. interdigitale, Microsporum fulvum and C. albicans. Description: Inhibition assays summarised across the range of fungal pathogens. The class given is cell-based. The settings on record: summary of Table 3. The method, then:
(§1) The inhibitory effects of the plant defensins on the growth of Trichophyton rubrum, T. interdigitale, Microsporum fulvum and C. albicans (obtained from the National Mycology Reference Centre, South Australia Pathology at the Women's and Children's Hospital, Adelaide, Australia) are measured essentially as described by Broekaert et al. (1990) FEMS Microbiol Lett 69:55-59. Spores of T. rubrum, T. interdigitale and M. fulvum are isolated from sporulating fungus growing on 1⁄2 strength Sabouraud dextrose agar (SDA). Spores were removed from the plates by the addition of 1⁄2 strength potato dextrose broth (PDB). C. albicans cells are grown in Yeast Peptone Broth (YPD) for 16 h. Spore and cell concentrations are measured using a hemocytometer. Antifungal assays are conducted in 96 well microtitre plates essentially as herein described. Wells are loaded with 20 μL of filter sterilized (0.22 μm syringe filter, Millipore) defensin (10× stock for each final concentration) or water and 80 μL of 5×10^4 spores/mL (T. rubrum, T, interdigitale, M. fulvum) or 5,000 cells/mL (C. albicans) in 1⁄2 strength PDB. The plates are incubated at 30° C. Fungal growth is assayed by measuring optical density at 595 nm ([…]) using a microtitre plate reader (SpectraMax Pro M2; Molecular Devices. Growth is allowed to proceed until the optical density (OD) of the fungus in the absence of any test defensin reached an OD of 0.2. Each test is performed in duplicate.

A further data set concerns Microsporum fulvum. Nature of the data set: Antifungal growth inhibition assay, Microsporum fulvum. The settings on record: summary of Table 3. It counts as cell-based. As to the method: as §1, with “Wells are loaded with 20 μL of filter sterilized (0.22 μm syringe filter, Millipore) defensin (10× stock for each final concentration) or water and 80 μL of 5×10^4 spores/mL (T. rubrum, T, interdigitale, M. fulvum) or 5,000 cells/mL (C. albicans) in 1⁄2 strength PDB. The plates are incubated at 30° C.” left out

In a further data set the test system is C. albicans. Description: Antifungal growth inhibition assay, C. albicans. It counts as cell-based, Candida albicans. Particulars: summary of Table 3. The method, then: as §1, with “Wells are loaded with 20 μL of filter sterilized (0.22 μm syringe filter, Millipore) defensin (10× stock for each final concentration) or water and 80 μL of 5×10^4 spores/mL (T. rubrum, T, interdigitale, M. fulvum) or 5,000 cells/mL (C. albicans) in 1⁄2 strength PDB. The plates are incubated at 30° C.” left out

Read-outs that look alike come from different tables or passages of the source.

Take “LL37: human antimicrobial peptide LL37 used as a control (LLGDFFRKSKEKIGKEFKRIVQRIKDFLRNLVPRTES; Antibacterial peptide LL-37; UniProt P49913 134-170, looked up) [reference compound]”: in the data set with Escherichia coli, the “Growth of E. coli in the presence of defensin” value (shortened to “Growth of E. coli”) is “inhibited the growth of E. coli in a concentration dependent manner”.

On to `C=C1CCN([C@H](C)[C@](O)(Cn2cncn2)c2ccc(F)cc2F)CC1` [Efinaconazole], for which the “Cumulative amount through nail as percent (of applied dose)” value in data set [1] (1 day, 10 % solution) was found to be 0.2%; in data set [1] (2 day, 10 % solution) it was 0.4%; in data set [1] (3 day, 10 %), 0.7%; in data set [1] (4 day, 10 % solution), 0.8%; in data set [1] (6 day, 10 %), 1.3%; in data set [1] (9 day, 10 %), 2.0%. Besides, the “Cumulative amount through nail as percent (of applied dose)” value was determined as 2.7% in data set [1] (12 day, 10 % solution) and 3.3% in data set [1] (15 day, 10 % solution).

Turning to “NaD1: Solanaceous Class II plant defensin from Nicotiana alata, SEQ ID NO: 18 (RECKTESNTFPGICITKPPCRKACISEKFTDGHCSKILRRCLCTKPC; NaD1 Nicotiana alata) [reference compound]”, the “Nail penetration, result in words” value in data set [1] is “able to penetrate nails faster and more effectively than the active ingredients of current topical onychomycosis therapies”. In addition, the “U937 cells permeabilized (PI-positive)” value in data set [2] is on record as 33%. Further, in the data set on Escherichia coli, the “Growth of E. coli” value is “did not inhibit growth of E. coli at the concentrations tested”.

As to `Cc1cc(C2CCCCC2)n(O)c(=O)c1` [Ciclopirox], the “Cumulative amount through nail as percent (of applied dose)” value stood at 0.03% in data set [1] (3 day, 10 %); 0.03% in data set [1] (6 day, 10 %); 0.04% in data set [1] (9 day, 10 %); 0.05% in data set [1] (12 day, 10 % solution); 0.06% in data set [1] (15 day, 10 % solution).

With “HXL009: Class I plant defensin from Zea mays, SEQ ID NO: 9 (TVCMRHNNFYHGPCMSNKDCANSCVQHNLGVGGYCRGKIPFNKECMCTFEC; HXL009 Zea mays)”, the “U937 cells permeabilized (PI-positive)” value in data set [2] was “less than 2%”. In addition, the “Antifungal activity across the range of fungal pathogens, result in words” value (shortened to “Antifungal activity across the range”) in data set [3] was “did not display any activity at the concentrations tested”.

As for “HXL001: Class I plant defensin from Zea mays, SEQ ID NO: 4 (RHCLSQSHRFKGLCMSSNNCANVCQTENFPGGECKAEGATRKCFCKKIC; HXL001 Zea mays)”, the “U937 cells permeabilized (PI-positive)” value in data set [2] is on record as “less than 2%”. Also, the “Antifungal activity across the range” value in data set [3] is listed as “did not display any activity at the concentrations tested”.

As for “HXL005: Class I plant defensin from Taraxcum kok-saghyz, SEQ ID NO: 8 (KMCQTTSHAFSCVNDSGCSGSCEKQGFASGKCDGVRRRCTCYKKC; HXL005 Taraxcum kok-saghyz)”, the “U937 cells permeabilized (PI-positive)” value in data set [2] is given as around 25%. Besides, the “Antifungal activity across the range” value in data set [3] is recorded as “most effective plant defensins across the range of fungal pathogens”.

For the compound “HXL002: Class I plant defensin from Triticum aestivum, SEQ ID NO: 5 (RDCLSQSHKFKGACLSSSNCAAVCRTENFPDGECHTHNFARKCFCKRAC; HXL002 Triticum aestivum)”, the “U937 cells permeabilized (PI-positive)” value in data set [2] is recorded as “less than 2%”. In addition, the “Inhibition of M. fulvum, result in words” value in the data set on Microsporum fulvum is “very poor inhibitors”. Also, the “Inhibition of C. albicans, result in words” value in the data set with C. albicans was “very poor inhibitors”.

Regarding “HXL004: Class I plant defensin from Nicotiana benthamiana, SEQ ID NO: 7 (RTCESQSHRFKGLCFSRSNCASVCHTEGFNGGHCRGFRRRCFCTRHC; HXL004 Nicotiana benthamiana)”, in data set [1], the “Nail penetration, result in words” value is “able to penetrate nails faster and more effectively than the active ingredients of current topical onychomycosis therapies”. Also, the “U937 cells permeabilized (PI-positive)” value in data set [2] is given as 13%. Also, in the data set on Escherichia coli, the “Growth of E. coli” value was “inhibited the growth of E. coli in a concentration dependent manner”. Further, the “Antifungal activity across the range” value in data set [3] is on record as “intermediate activity across the range of pathogens”.

Regarding “HXL015: Class I plant defensin from Oryza sativa, SEQ ID NO: 12 (RHCLSQSHRFKGMCVSSNNCANVCRTESFPDGECKSHGLERKCFCKKVC; HXL015 Oryza sativa)”, the “Antifungal activity across the range” value in data set [3] was “intermediate activity across the range of pathogens”.

For the compound “HXL035: Class I plant defensin from Picramnia pentandra, SEQ ID NO: 2 (KVCTKPSKFFKGLCGFDRDCTVACKKEGLASGFCQNKGFFNVVCVCRKPC; HXL035 Picramnia pentandra)”, in data set [3], the “Antifungal activity across the range” value is reported as “most effective plant defensins across the range of fungal pathogens”.

As for “HXL013: Class I plant defensin from Glycine max, SEQ ID NO: 11 (KDCLTRRHGFQGRCLFDRQCAHVCRSDGFIGGQCRGPLRKCFCSRPC; HXL013 Glycine max)”, the “U937 cells permeabilized (PI-positive)” value in data set [2] is 5%. Also, the “Antifungal activity across the range” value in data set [3] is recorded as “intermediate activity across the range of pathogens”.

In the case of “HXL012: Class I plant defensin from Amaranthus retroflexus, SEQ ID NO: 10 (RMCKAPSKLFRGMCGIRDSNCDSVCRAEGMAAGDCHGLRRRCICSRPC; HXL012 Amaranthus retroflexus)”, the “Nail penetration, result in words” value in data set [1] is recorded as “did not penetrate the nail”. For the same compound, the “U937 cells permeabilized (PI-positive)” value in data set [2] is listed as “less than 2%”. In data set [3], the “Antifungal activity across the range” value is reported as “intermediate activity across the range of pathogens”.

Take “HXP4: Artificial defensin variant, Loop1B of a Class I defensin replaces that of the Solanaceous Class II defensin, SEQ ID NO: 21 (RECKTESHRFKGPCITKPPCRKACISEKFTDGHCSKILRRCLCTKPC; HXP4)”: the “U937 cells permeabilized (PI-positive)” value in data set [2] is given as 13%.

Consider `OB1OCc2cc(F)ccc21` [Tavaborole], for which the “Cumulative amount through nail as percent (of applied dose)” value in data set [1] (3 day, 10 %) is on record as 2.0%; in data set [1] (6 day, 10 %), 3.7%; in data set [1] (9 day, 10 %), 6.8%; in data set [1] (12 day, 10 % solution) it was 10.7%; in data set [1] (15 day, 10 % solution), 14.9%.
